Reference: patent US20240376084A1, “INHIBITORS OF ALPHA-HEMOLYSIN OF STAPHYLOCOCCUS AUREUS” (Helmholtz-Zentrum Fur Infektionsforschung GmbH, priority 2021, published 2024)

Experiments:
[1] = biological target: hemolysin alpha from Staphylococcus aureus (Staphylococcus aureus, UniProt P09616); test: cell-based
[2] = biological target: S. aureus Alpha hemolysin (Staphylococcus aureus, UniProt P09616); test: cell-based; conditions: A549-LDH Assay activity
Chain of S. aureus Alpha hemolysin (P09616 27-319 limits assumed): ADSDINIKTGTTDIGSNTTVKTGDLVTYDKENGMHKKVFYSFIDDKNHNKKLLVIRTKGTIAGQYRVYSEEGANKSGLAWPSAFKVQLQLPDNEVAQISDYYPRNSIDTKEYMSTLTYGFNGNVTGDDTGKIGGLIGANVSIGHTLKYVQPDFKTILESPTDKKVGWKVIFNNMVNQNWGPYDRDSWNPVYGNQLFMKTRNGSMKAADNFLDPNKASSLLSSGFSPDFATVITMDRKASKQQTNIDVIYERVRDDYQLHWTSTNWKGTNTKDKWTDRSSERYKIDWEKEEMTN

Chain of hemolysin alpha from Staphylococcus aureus (P09616 27-319 limits assumed): as above

Compound: COc1ccc(-c2ccc(NS(=O)(=O)c3cc4[nH]c(=O)c(=O)[nH]c4cc3C)cc2Br)cc1F [Compound 302, N-[3-bromo-4-(3-fluoro-4-methoxy-phenyl)phenyl]-7-methyl-2,3-dioxo-1,4-dihydroquinoxaline-6-sulfonamide]
- EC50 [1]: < 0.03 µM
- EC50 [2]: < 0.03 µM

Compound: COc1ccc(-c2ncc(NS(=O)(=O)c3cc4[nH]c(=O)c(=O)[nH]c4cc3C)cc2Cl)cc1F [Compound 303, N-[5-chloro-6-(3-fluoro-4-methoxy-phenyl)-3-pyridyl]-7-methyl-2,3-dioxo-1,4-dihydroquinoxaline-6-sulfonamide]
- EC50 [1]: 0.1 to 1 µM
- EC50 [2]: 0.1 to 1 µM

Compound: Cc1cc2[nH]c(=O)c(=O)[nH]c2cc1S(=O)(=O)Nc1ccc(C2CCOCC2)cc1 [Compound 304, 7-methyl-2,3-dioxo-N-(4-tetrahydropyran-4-ylphenyl)-1,4-dihydroquinoxaline-6-sulfonamide]
- EC50 [1]: 1 to 3.5 µM
- EC50 [2]: 0.1 to 1 µM

Compound: Cc1cc2[nH]c(=O)c(=O)[nH]c2cc1S(=O)(=O)Nc1cnc(-c2ccc(C#N)cc2)c(Cl)c1 [Compound 305, N-[5-chloro-6-(4-cyanophenyl)-3-pyridyl]-7-methyl-2,3-dioxo-1,4-dihydroquinoxaline-6-sulfonamide]
- EC50 [1]: 0.1 to 1 µM
- EC50 [2]: 0.03 to 0.1 µM

Compound: Cc1cc2[nH]c(=O)c(=O)[nH]c2cc1S(=O)(=O)Nc1ccc(C2CCCCC2)c(Br)c1 [Compound 306, N-(3-bromo-4-cyclohexylphenyl)-7-methyl-2,3-dioxo-1,2,3,4-tetrahydroquinoxaline-6-sulfonamide]
- EC50 [1]: 0.03 to 0.1 µM
- EC50 [2]: 0.1 to 1 µM

Compound: Cc1cc2[nH]c(=O)c(=O)[nH]c2cc1S(=O)(=O)Nc1ccc(-c2ccc(F)c(F)c2F)c(Cl)c1 [Compound 307, N-[3-chloro-4-(2,3,4-trifluorophenyl)phenyl]-7-methyl-2,3-dioxo-1,4-dihydroquinoxaline-6-sulfonamide]
- EC50 [1]: 0.03 to 0.1 µM
- EC50 [2]: 0.03 to 0.1 µM

Compound: Cc1cc2[nH]c(=O)c(=O)[nH]c2cc1S(=O)(=O)Nc1ccc(-c2c(F)cccc2F)c(Cl)c1 [Compound 308, N-[3-chloro-4-(2,6-difluorophenyl)phenyl]-7-methyl-2,3-dioxo-1,4-dihydroquinoxaline-6-sulfonamide]
- EC50 [1]: 0.03 to 0.1 µM
- EC50 [2]: 0.03 to 0.1 µM

Compound: Cc1cc2[nH]c(=O)c(=O)[nH]c2cc1S(=O)(=O)Nc1ccc(-c2cc(F)cc(F)c2)c(Cl)c1 [Compound 309, N-[3-chloro-4-(3,5-difluorophenyl)phenyl]-7-methyl-2,3-dioxo-1,4-dihydroquinoxaline-6-sulfonamide]
- EC50 [1]: < 0.03 µM
- EC50 [2]: 0.1 to 1 µM

Compound: Cc1cc2[nH]c(=O)c(=O)[nH]c2cc1S(=O)(=O)Nc1ccc(-c2cccc(Br)c2)c(Cl)c1 [Compound 310, N-[4-(3-bromophenyl)-3-chloro-phenyl]-7-methyl-2,3-dioxo-1,4-dihydroquinoxaline-6-sulfonamide]
- EC50 [1]: < 0.03 µM
- EC50 [2]: 0.1 to 1 µM

Compound: Cc1cc2[nH]c(=O)c(=O)[nH]c2cc1S(=O)(=O)Nc1ccc(-c2cccc(N)c2)c(Cl)c1 [Compound 311, N-(3′-amino-2-chloro-[1,1′-biphenyl]-4-yl)-7-methyl-2,3-dioxo-1,2,3,4-tetrahydroquinoxaline-6-sulfonamide]
- EC50 [1]: 0.03 to 0.1 µM
- EC50 [2]: < 0.03 µM

Compound: Cc1cc2[nH]c(=O)c(=O)[nH]c2cc1S(=O)(=O)Nc1ccc(-c2cccc(P(C)(C)=O)c2)c(Cl)c1 [Compound 312, N-[3-chloro-4-(3-dimethylphosphorylphenyl)phenyl]-7-methyl-2,3-dioxo-1,4-dihydroquinoxaline-6-sulfonamide]
- EC50 [1]: 0.1 to 1 µM
- EC50 [2]: 0.1 to 1 µM

Compound: Cc1cc2[nH]c(=O)c(=O)[nH]c2cc1S(=O)(=O)Nc1ccc(-c2cccc(S(C)(=O)=O)c2)c(Cl)c1 [Compound 313, N-[3-chloro-4-(3-methylsulfonylphenyl)phenyl]-7-methyl-2,3-dioxo-1,4-dihydroquinoxaline-6-sulfonamide]
- EC50 [1]: 0.1 to 1 µM
- EC50 [2]: 0.1 to 1 µM

Compound: Cc1cc2[nH]c(=O)c(=O)[nH]c2cc1S(=O)(=O)Nc1ccc(-c2ccc(C(N)=O)cc2)c(Cl)c1 [Compound 314, 4-[2-chloro-4-[(7-methyl-2,3-dioxo-1,4-dihydroquinoxalin-6-yl)sulfonylamino]phenyl]benzamide]
- EC50 [1]: 0.1 to 1 µM
- EC50 [2]: 0.1 to 1 µM

Compound: Cc1cc2[nH]c(=O)c(=O)[nH]c2cc1S(=O)(=O)Nc1ccc(-c2cc(Cl)cc(Cl)c2)c(Cl)c1 [Compound 315, N-[3-chloro-4-(3,5-dichlorophenyl)phenyl]-7-methyl-2,3-dioxo-1,4-dihydroquinoxaline-6-sulfonamide]
- EC50 [1]: 0.1 to 1 µM
- EC50 [2]: 1 to 6 µM

Compound: Cc1cc2[nH]c(=O)c(=O)[nH]c2cc1S(=O)(=O)Nc1ccc(-c2cccc(C(F)(F)F)c2)c(Cl)c1 [Compound 316, N-[3-chloro-4-[3-(trifluoromethyl)phenyl]phenyl]-7-methyl-2,3-dioxo-1,4-dihydroquinoxaline-6-sulfonamide]
- EC50 [1]: 0.03 to 0.1 µM
- EC50 [2]: 1 to 6 µM

Compound: Cc1cc2[nH]c(=O)c(=O)[nH]c2cc1S(=O)(=O)Nc1ccc(-c2ccc(C(F)(F)F)cc2)c(Cl)c1 [Compound 317, N-[3-chloro-4-[4-(trifluoromethyl)phenyl]phenyl]-7-methyl-2,3-dioxo-1,4-dihydroquinoxaline-6-sulfonamide]
- EC50 [1]: 0.1 to 1 µM
- EC50 [2]: 1 to 6 µM

Compound: Cc1cc2[nH]c(=O)c(=O)[nH]c2cc1S(=O)(=O)Nc1ccc(-c2cccc(C#N)c2)c(Cl)c1 [Compound 318, N-[3-chloro-4-(3-cyanophenyl)phenyl]-7-methyl-2,3-dioxo-1,4-dihydroquinoxaline-6-sulfonamide]
- EC50 [1]: 0.03 to 0.1 µM
- EC50 [2]: 0.1 to 1 µM

Compound: CCOc1ccc(-c2ccc(NS(=O)(=O)c3cc4[nH]c(=O)c(=O)[nH]c4cc3C)cc2Cl)cc1 [Compound 319, N-[3-chloro-4-(4-ethoxyphenyl)phenyl]-7-methyl-2,3-dioxo-1,4-dihydroquinoxaline-6-sulfonamide]
- EC50 [1]: 0.03 to 0.1 µM
- EC50 [2]: 0.1 to 1 µM

Compound: COc1ccc(-c2ccc(NS(=O)(=O)c3cc4[nH]c(=O)c(=O)[nH]c4cc3C)cc2Cl)cc1F [Compound 320, N-[3-chloro-4-(3-fluoro-4-methoxy-phenyl)phenyl]-7-methyl-2,3-dioxo-1,4-dihydroquinoxaline-6-sulfonamide]
- EC50 [1]: < 0.03 µM
- EC50 [2]: < 0.03 µM

Compound: Cc1cc2[nH]c(=O)c(=O)[nH]c2cc1S(=O)(=O)Nc1ccc(Cc2ccccc2)c(Cl)c1 [Compound 321, N-(4-benzyl-3-chloro-phenyl)-7-methyl-2,3-dioxo-1,4-dihydroquinoxaline-6-sulfonamide]
- EC50 [1]: 0.1 to 1 µM
- EC50 [2]: 0.1 to 1 µM

Compound: Cc1cc2[nH]c(=O)c(=O)[nH]c2cc1S(=O)(=O)Nc1ccc(OC(F)(F)F)c(Br)c1 [Compound 322, N-[3-bromo-4-(trifluoromethoxy)phenyl]-7-methyl-2,3-dioxo-1,4-dihydroquinoxaline-6-sulfonamide]
- EC50 [1]: 0.03 to 0.1 µM
- EC50 [2]: 0.03 to 0.1 µM

Compound: Cc1cc(NS(=O)(=O)c2cc3[nH]c(=O)c(=O)[nH]c3cc2C)ccc1OC(F)(F)F [Compound 323, 7-methyl-N-[3-methyl-4-(trifluoromethoxy)phenyl]-2,3-dioxo-1,4-dihydroquinoxaline-6-sulfonamide]
- EC50 [1]: 0.03 to 0.1 µM
- EC50 [2]: < 0.03 µM

Compound: Cc1cc2[nH]c(=O)c(=O)[nH]c2cc1S(=O)(=O)Nc1ccc(OC(F)(F)F)c(Cl)c1 [Compound 324, N-[3-chloro-4-(trifluoromethoxy)phenyl]-7-methyl-2,3-dioxo-1,4-dihydroquinoxaline-6-sulfonamide]
- EC50 [1]: 0.03 to 0.1 µM
- EC50 [2]: 0.03 to 0.1 µM
